The source of these data is patent EP0908457B1, “3-(1,2-benzisothiazol- and isoxazol-5-Y1)-2,4(1H,3H)-pyrimidinedione or thione and 3-(1,2-benzisothiazol- and isoxazol-5-y1)-4(3H)-pyrimidinone or thione herbicidal agents” (BASF AKTIENGESELLSCHAFT, priority 1997, dated 1999).

Holding throughout (assay type): in vivo
For assay [1], the system named is Cyperus serotinus, Rottb. In words: Preemergence weed control under flooded paddy conditions, CYPSE (Flatsedge). As to conditions: for CYPSE herbicidal rating / herbicidal effect rating, CYPSE: preemergence, rated three to four weeks after treatment; for CYPSE: preemergence weeds, herbicidal effect rating 0-9, three to four weeks after treatment.
The subject of a further assay is Cyperus iria. Kind of assay: Preemergence weed control under flooded paddy conditions, CYPIR (Rice Flatsedge). As to conditions: flooded paddy; for CYPIR herbicidal rating / herbicidal effect rating, CYPIR: preemergence, rated three to four weeks after treatment; for CYPIR: preemergence weeds, herbicidal effect rating 0-9, three to four weeks after treatment.
In assay [2] the test system is Monochoria vaginalis, Presl. In words: Preemergence weed control under flooded paddy conditions, MOOVA (Monochoria). As to conditions: flooded paddy; for MOOVA herbicidal rating / herbicidal effect rating, MOOVA: preemergence, rated three to four weeks after treatment; for MOOVA: preemergence weeds, herbicidal effect rating 0-9, three to four weeks after treatment.
The subject of a further assay is Sagittaria pygmaea, L. In words: Preemergence weed control under flooded paddy conditions, SAGPY (Arrowhead (Pygmaea)). As to conditions: flooded paddy; for SAGPY herbicidal rating / herbicidal effect rating, SAGPY: preemergence, rated three to four weeks after treatment; for SAGPY: preemergence weeds, herbicidal effect rating 0-9, three to four weeks after treatment.

Assay [3] relates to Echinochloa oryzoides (Ard.) Fritsch. Kind of assay: Preemergence weed control under flooded paddy conditions, ECHORC (Watergrass (Calif.)). As to conditions: flooded paddy; for ECHORC herbicidal rating / herbicidal effect rating, ECHORC: preemergence, rated three to four weeks after treatment; for ECHORC: preemergence weeds, herbicidal effect rating 0-9, three to four weeks after treatment.

As for `Cn1c(C(F)(F)F)cc(=O)n(-c2ccc3snc(COC(=O)c4ccncc4)c3c2)c1=O` [Example 463, 2,4(1H,3H)-Pyrimidinedione, 3-[3-(hydroxymethyl)-1,2-benzisothiazol-5-yl]-1-methyl-6-(trifluoromethyl)-, isonicotinate (ester)], the CYPSE herbicidal rating in assay [1] (0.0320 kg/ha) stood at 2.0; in assay [1] (0.1250 kg/ha) it was 6.0; in assay [1] (0.2500 kg/ha), 7.0. Besides, the CYPIR herbicidal rating with Cyperus iria (0.0320 kg/ha) is 5.0; in the assay with Cyperus iria (0.0620 kg/ha) it was 6.0; with Cyperus iria (0.1250 kg/ha), 9.0; with Cyperus iria (0.2500 kg/ha), 9.0. For the same compound, the MOOVA herbicidal rating was found to be 7.0 in assay [2] (0.0320 kg/ha), 9.0 in assay [2] (0.0620 kg/ha), 9.0 in assay [2] (0.1250 kg/ha) and 9.0 in assay [2] (0.2500 kg/ha). Also, the SAGPY herbicidal rating with Sagittaria pygmaea, L. (0.0320 kg/ha) was 0.0; in the assay on Sagittaria pygmaea, L. (0.0620 kg/ha) it was 3.0; in the assay with Sagittaria pygmaea, L. (0.1250 kg/ha), 5.0; in the assay on Sagittaria pygmaea, L. (0.2500 kg/ha), 7.0. Also, the ECHORC herbicidal rating turned out to be 2.0 in assay [3] (0.0320 kg/ha), 6.0 in assay [3] (0.0620 kg/ha), 9.0 in assay [3] (0.1250 kg/ha) and 9.0 in assay [3] (0.2500 kg/ha).
On to `COc1cccc(CC(=O)OCc2nsc3ccc(-n4c(=O)cc(C(F)(F)F)n(C)c4=O)cc23)c1` [Example 454, 2,4(1H,3H)-Pyrimidinedione, 3-[3-(hydroxymethyl)-1,2-benzisothiazol-5-yl]-1-methyl-6-(trifluoromethyl)-, (m-methoxyphenyl)acetate (ester)], for which the CYPSE in assay [1] (0.0320 kg/ha) was determined as 0.0; in assay [1] (0.0620 kg/ha), 0.0; in assay [1] (0.1250 kg/ha) it was 4.0; in assay [1] (0.2500 kg/ha) it was 8.0. Also, the CYPIR with Cyperus iria (0.0320 kg/ha) turned out to be 0.0; in the assay with Cyperus iria (0.0620 kg/ha) it was 1.0; in the assay on Cyperus iria (0.1250 kg/ha), 6.0; in the assay with Cyperus iria (0.2500 kg/ha), 9.0. The MOOVA came out at 2.0 in assay [2] (0.0320 kg/ha), 7.0 in assay [2] (0.0620 kg/ha), 9.0 in assay [2] (0.1250 kg/ha) and 9.0 in assay [2] (0.2500 kg/ha). Besides, the SAGPY was 0.0 with Sagittaria pygmaea, L. (0.0320 kg/ha); 2.0 with Sagittaria pygmaea, L. (0.0620 kg/ha); 3.0 with Sagittaria pygmaea, L. (0.1250 kg/ha); 6.0 with Sagittaria pygmaea, L. (0.2500 kg/ha). Also, the ECHORC is 3.0 in assay [3] (0.0320 kg/ha), 3.0 in assay [3] (0.0620 kg/ha), 6.0 in assay [3] (0.1250 kg/ha) and 7.0 in assay [3] (0.2500 kg/ha).
Regarding `Cn1c(C(F)(F)F)cc(=O)n(-c2ccc3snc(CSc4ccccc4)c3c2)c1=O` [Example 392, 2,4(1H,3H)-Pyrimidinedione, 1-methyl-3-{3-[(phenylthio)methyl]-1,2-benzisothiazol-5-yl}-6-(trifluoromethyl)-], the “herbicidal effect rating, CYPSE” value in assay [1] (Rate 0.0320 kg/ha), in assay [1] (Rate 0.0620 kg/ha), in assay [1] (Rate 0.1250 kg/ha) and in assay [1] (Rate 0.2500 kg/ha) was 0.0 throughout. The “herbicidal effect rating, CYPIR” value with Cyperus iria (Rate 0.0320 kg/ha) is reported as 0.0; in the assay with Cyperus iria (Rate 0.0620 kg/ha), 0.0; with Cyperus iria (Rate 0.1250 kg/ha), 3.0; with Cyperus iria (Rate 0.2500 kg/ha), 7.0. The “herbicidal effect rating, MOOVA” value stood at 6.0 in assay [2] (Rate 0.0320 kg/ha), 7.0 in assay [2] (Rate 0.0620 kg/ha), 7.0 in assay [2] (Rate 0.1250 kg/ha) and 9.0 in assay [2] (Rate 0.2500 kg/ha). Also, the “herbicidal effect rating, SAGPY” value in the assay on Sagittaria pygmaea, L. (Rate 0.0320 kg/ha) turned out to be 0.0; in the assay with Sagittaria pygmaea, L. (Rate 0.0620 kg/ha) it was 0.0; in the assay with Sagittaria pygmaea, L. (Rate 0.1250 kg/ha) it was 0.0; in the assay with Sagittaria pygmaea, L. (Rate 0.2500 kg/ha) it was 0.0. In addition, the “herbicidal effect rating, ECHORC” value in assay [3] (Rate 0.0320 kg/ha) amounted to 5.0; in assay [3] (Rate 0.0620 kg/ha), 7.0; in assay [3] (Rate 0.1250 kg/ha), 9.0; in assay [3] (Rate 0.2500 kg/ha) it was 9.0.
Regarding `CCCCS(=O)(=O)OCc1nsc2ccc(-n3c(=O)cc(C(F)(F)F)n(C)c3=O)cc12` [Example 381, 2,4(1H,3H)-Pyrimidinedione, 3-[3-(hydroxymethyl)-1,2-benzisothiazol-5-yl]-1-methyl-6-(trifluoromethyl)-, butanesulfonate (ester)], the “herbicidal effect rating, CYPSE” value is listed as 0.0 in assay [1] (Rate 0.0320 kg/ha), 4.0 in assay [1] (Rate 0.0620 kg/ha), 7.0 in assay [1] (Rate 0.1250 kg/ha) and 7.0 in assay [1] (Rate 0.2500 kg/ha). The “herbicidal effect rating, CYPIR” value with Cyperus iria (Rate 0.0320 kg/ha) is 6.0; in the assay with Cyperus iria (Rate 0.0620 kg/ha) it was 7.0; in the assay with Cyperus iria (Rate 0.1250 kg/ha), 8.0; in the assay on Cyperus iria (Rate 0.2500 kg/ha) it was 8.0. Moreover, the “herbicidal effect rating, MOOVA” value worked out at 6.0 in assay [2] (Rate 0.0320 kg/ha), 7.0 in assay [2] (Rate 0.0620 kg/ha), 8.0 in assay [2] (Rate 0.1250 kg/ha) and 8.0 in assay [2] (Rate 0.2500 kg/ha). Also, the “herbicidal effect rating, SAGPY” value with Sagittaria pygmaea, L. (Rate 0.0320 kg/ha) came out at 3.0; in the assay with Sagittaria pygmaea, L. (Rate 0.0620 kg/ha) it was 5.0; in the assay with Sagittaria pygmaea, L. (Rate 0.1250 kg/ha) it was 6.0; in the assay with Sagittaria pygmaea, L. (Rate 0.2500 kg/ha) it was 7.0. Also, the “herbicidal effect rating, ECHORC” value in assay [3] (Rate 0.0320 kg/ha) was determined as 0.0; in assay [3] (Rate 0.0620 kg/ha), 3.0; in assay [3] (Rate 0.1250 kg/ha), 4.0; in assay [3] (Rate 0.2500 kg/ha) it was 6.0.
In turn, `Cn1c(C(F)(F)F)cc(=O)n(-c2ccc3snc(COC(=O)C4CC4)c3c2)c1=O` [Example 496, 2,4(1H,3H)-Pyrimidinedione, 3-[3-(hydroxymethyl)-1,2-benzisothiazol-5-yl]-1-methyl-6-(trifluoromethyl)-, cyclopropanecarboxylate (ester)] gave a CYPSE herbicidal rating in assay [1] (0.2500 kg/ha) of 7.0. In addition, the CYPIR herbicidal rating is listed as 0.0 with Cyperus iria (0.0320 kg/ha), 7.0 in the assay with Cyperus iria (0.0620 kg/ha), 7.0 in the assay with Cyperus iria (0.1250 kg/ha) and 9.0 with Cyperus iria (0.2500 kg/ha). Also, the MOOVA herbicidal rating in assay [2] (0.0320 kg/ha) is 0.0; in assay [2] (0.0620 kg/ha) it was 6.0; in assay [2] (0.1250 kg/ha), 6.0; in assay [2] (0.2500 kg/ha), 8.0. The SAGPY herbicidal rating in the assay with Sagittaria pygmaea, L. (0.0320 kg/ha) stood at 0.0; with Sagittaria pygmaea, L. (0.0620 kg/ha) it was 0.0; in the assay on Sagittaria pygmaea, L. (0.1250 kg/ha), 3.0; with Sagittaria pygmaea, L. (0.2500 kg/ha) it was 6.0. For the same compound, the ECHORC herbicidal rating in assay [3] (0.0320 kg/ha) worked out at 4.0; in assay [3] (0.0620 kg/ha), 4.0; in assay [3] (0.1250 kg/ha), 6.0; in assay [3] (0.2500 kg/ha) it was 7.0.
For the compound `Cn1c(C(F)(F)F)cc(=O)n(-c2ccc3snc(C(=O)NOCc4ccccc4)c3c2)c1=O` [Example 400, 1,2-Benzisothiazole-3-carboxamide, N-(benzyloxy)-5-[3,6-dihydro-3-methyl-2,6-dioxo-4-(trifluoromethyl)-1(2H)-pyrimidinyl]-], the “herbicidal effect rating, CYPSE” value in assay [1] (Rate 0.0320 kg/ha), in assay [1] (Rate 0.0620 kg/ha), in assay [1] (Rate 0.1250 kg/ha) and in assay [1] (Rate 0.2500 kg/ha) was 0.0 throughout. For the same compound, the “herbicidal effect rating, CYPIR” value worked out at 3.0 with Cyperus iria (Rate 0.0320 kg/ha), 3.0 with Cyperus iria (Rate 0.0620 kg/ha), 9.0 in the assay with Cyperus iria (Rate 0.1250 kg/ha) and 9.0 in the assay on Cyperus iria (Rate 0.2500 kg/ha). Besides, the “herbicidal effect rating, MOOVA” value in assay [2] (Rate 0.0320 kg/ha) is 6.0; in assay [2] (Rate 0.0620 kg/ha), 7.0; in assay [2] (Rate 0.1250 kg/ha) it was 7.0; in assay [2] (Rate 0.2500 kg/ha), 9.0. Further, the “herbicidal effect rating, SAGPY” value in the assay with Sagittaria pygmaea, L. (Rate 0.0320 kg/ha) was 0.0; with Sagittaria pygmaea, L. (Rate 0.0620 kg/ha) it was 0.0; in the assay with Sagittaria pygmaea, L. (Rate 0.1250 kg/ha), 0.0; in the assay on Sagittaria pygmaea, L. (Rate 0.2500 kg/ha), 0.0. For the same compound, the “herbicidal effect rating, ECHORC” value in assay [3] (Rate 0.0320 kg/ha), in assay [3] (Rate 0.0620 kg/ha), in assay [3] (Rate 0.1250 kg/ha) and in assay [3] (Rate 0.2500 kg/ha) was 0.0 each time.
As to `Cn1c(C(F)(F)F)cc(=O)n(-c2ccc3snc(C(C#N)=CC4CC4)c3c2)c1=O` [Example 458, 1,2-Benzisothiazole-3-acetonitrile, alpha(cyclopropylmethylene)-5-[3,6-dihydro-3-methyl-2,6-dioxo-4-(trifluoromethyl)-1(2H)-pyrimidinyl]-, (E)- and (Z)-], in assay [1] (0.0320 kg/ha), the CYPSE is on record as 2.0. In addition, the CYPIR was 0.0 in the assay on Cyperus iria (0.0320 kg/ha), 4.0 in the assay with Cyperus iria (0.0620 kg/ha), 7.0 in the assay on Cyperus iria (0.1250 kg/ha) and 7.0 in the assay on Cyperus iria (0.2500 kg/ha). Besides, the MOOVA amounted to 4.0 in assay [2] (0.0320 kg/ha), 6.0 in assay [2] (0.0620 kg/ha), 9.0 in assay [2] (0.1250 kg/ha) and 9.0 in assay [2] (0.2500 kg/ha). Moreover, the SAGPY in the assay on Sagittaria pygmaea, L. (0.0320 kg/ha) is listed as 2.0; with Sagittaria pygmaea, L. (0.0620 kg/ha), 2.0; in the assay on Sagittaria pygmaea, L. (0.1250 kg/ha) it was 6.0; in the assay on Sagittaria pygmaea, L. (0.2500 kg/ha) it was 8.0. The ECHORC came out at 5.0 in assay [3] (0.0320 kg/ha), 6.0 in assay [3] (0.0620 kg/ha), 7.0 in assay [3] (0.1250 kg/ha) and 8.0 in assay [3] (0.2500 kg/ha).
